Target: ATP-dependent translocase ABCB1 (Rattus norvegicus, UniProt P43245)
Test: TP_TRANSPORTER: RT-PCR in vivo, liver of Lewis rat
Type: functional, organism-based

Chain of ATP-dependent translocase ABCB1 (P43245 whole entry): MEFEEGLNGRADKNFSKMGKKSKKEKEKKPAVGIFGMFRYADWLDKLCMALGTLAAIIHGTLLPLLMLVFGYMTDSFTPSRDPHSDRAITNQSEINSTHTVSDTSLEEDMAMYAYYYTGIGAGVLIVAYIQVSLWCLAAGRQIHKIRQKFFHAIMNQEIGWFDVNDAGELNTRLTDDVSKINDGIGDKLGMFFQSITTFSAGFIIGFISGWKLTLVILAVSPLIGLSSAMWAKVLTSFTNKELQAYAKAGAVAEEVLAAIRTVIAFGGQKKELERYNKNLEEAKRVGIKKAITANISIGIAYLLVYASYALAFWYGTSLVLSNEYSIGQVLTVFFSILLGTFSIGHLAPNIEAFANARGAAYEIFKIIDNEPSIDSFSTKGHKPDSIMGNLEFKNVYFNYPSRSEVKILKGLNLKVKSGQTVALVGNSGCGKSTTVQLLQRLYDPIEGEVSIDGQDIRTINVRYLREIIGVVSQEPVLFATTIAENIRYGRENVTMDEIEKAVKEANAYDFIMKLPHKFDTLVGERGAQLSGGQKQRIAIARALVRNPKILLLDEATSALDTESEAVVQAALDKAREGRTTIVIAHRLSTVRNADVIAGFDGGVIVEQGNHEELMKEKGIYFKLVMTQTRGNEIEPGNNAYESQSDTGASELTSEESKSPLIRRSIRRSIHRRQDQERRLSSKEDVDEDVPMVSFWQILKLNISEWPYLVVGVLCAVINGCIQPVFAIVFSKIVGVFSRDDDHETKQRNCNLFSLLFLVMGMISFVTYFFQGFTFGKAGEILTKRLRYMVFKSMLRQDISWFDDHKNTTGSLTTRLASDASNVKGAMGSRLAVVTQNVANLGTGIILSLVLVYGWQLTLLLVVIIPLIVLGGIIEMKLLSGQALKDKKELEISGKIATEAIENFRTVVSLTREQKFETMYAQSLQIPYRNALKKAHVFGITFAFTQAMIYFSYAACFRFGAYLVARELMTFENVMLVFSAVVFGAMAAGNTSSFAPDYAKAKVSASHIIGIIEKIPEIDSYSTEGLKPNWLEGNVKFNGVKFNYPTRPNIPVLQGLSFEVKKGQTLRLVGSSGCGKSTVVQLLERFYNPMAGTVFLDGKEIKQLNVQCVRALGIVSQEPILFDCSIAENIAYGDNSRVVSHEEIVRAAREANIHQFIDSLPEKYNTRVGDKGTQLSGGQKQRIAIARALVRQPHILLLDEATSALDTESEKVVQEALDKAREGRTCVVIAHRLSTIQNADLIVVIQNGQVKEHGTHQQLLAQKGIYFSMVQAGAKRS

CC/C(=C(\c1ccccc1)c1ccc(OCCN(C)C)cc1)c1ccccc1 [TAMOXIFEN]
Activity: inducer [+]
